The values that follow come from US6326371A, “Pyrudyl and pyrimidylpiperazine derivatives” (Pharmacia Aktiebolag, priority 1992, dated 2001).

The Ki is the dissociation constant of the complex between target and ligand, obtained from inhibition or displacement. Read a low Ki as tighter binding.

Counter-ions that a name gives are not always drawn.

The experiment has as its target T1, 5-HT2 receptors (Rattus norvegicus, UniProt P14842).
T1 construct: essentially as described by Leysen et al. (Mol. Pharmacol. 21, 301-14, 1982) using; from tissue
In words: Affinity to 5-HT2 receptors (Test 1, 3H-ketanserin binding). The conditions noted are these: 3H-ketanserin as ligand. The protocol: Test 1. Affinity to 5-HT2 receptors.
The binding assay is carried out essentially as described by Leysen et al. (Mol. Pharmacol. 21, 301-14, 1982) using ^3 H-ketanserin as ligand.

T1 sequence (P14842 whole entry): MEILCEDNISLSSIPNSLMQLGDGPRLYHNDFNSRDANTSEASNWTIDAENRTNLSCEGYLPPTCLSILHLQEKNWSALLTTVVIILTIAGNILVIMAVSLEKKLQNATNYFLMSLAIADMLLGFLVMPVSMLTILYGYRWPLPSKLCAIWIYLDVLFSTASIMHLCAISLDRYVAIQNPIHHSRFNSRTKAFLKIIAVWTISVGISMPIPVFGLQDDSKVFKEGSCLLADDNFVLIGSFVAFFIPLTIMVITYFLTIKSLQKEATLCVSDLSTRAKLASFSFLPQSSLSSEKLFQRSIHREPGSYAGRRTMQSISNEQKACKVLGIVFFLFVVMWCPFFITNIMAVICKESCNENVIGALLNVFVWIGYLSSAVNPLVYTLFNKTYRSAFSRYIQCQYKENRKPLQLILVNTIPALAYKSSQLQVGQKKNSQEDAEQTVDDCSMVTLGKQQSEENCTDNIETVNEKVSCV

With `Fc1ccc(C(OCCN2CCN(c3ccccn3)CC2)c2ccc(F)cc2)cc1` [3:1, 4-{2-[(4.4'-Difluorobenzhydryl)oxyl]ethyl}-1-(2-pyridyl)piperazine dihydrochloride], the Ki was 11 nM.
The figure for `Fc1ccc(N(CCCN2CCN(c3ccccn3)CC2)c2ccc(F)cc2)cc1` [1:1, 1-{3-[Bis-(4-fluorophenyl)amino]propyl}-4-(2-pyridyl)-piperazine-dihydrochloride] is 18 nM.
